Consider three compounds from US10888561B2, “CGRP receptor antagonists” (Heptares Therapeutics Limited, priority 2015, dated 2021).

A short description of data set [1]: Thermodynamic solubility profiling. In kind it is physicochemical. Conditions: PBS buffer pH 7.4, 24 h at rt. The procedure: Thermodynamic solubility profiling. A 50 mM DMSO stock solution of test compound was prepared, and from this, a working solution of 1 mM was prepared by dilution with DMSO. The UV absorbance of working solution was scanned from 220 nm to 1000 nm to identify the wavelength maxima of test compound. The 1 mM working solution was then serially diluted in DMSO to different concentrations to determine linearity/calibration curve. […] The resulting solution was then kept on a RotoSpin shaker at 50 rpm for 24 h at rt before the solution was filtered using 0.45 micron PVDF injector filters in order to remove the insoluble fraction of the compound. Subsequently, 150 uL of the filtrate is taken for quantification using a UV spectrophotometer, acquiring the optical density of standard solutions and test compound at the same wavelength maxima. From the optical density of test compound the thermodynamic solubility is calculated using the linearity/calibration curve and expressed as micromolar (μM). Solubility profiles of certain compounds of the invention are detailed in Table 7.

In another data set the target is CGRP receptor (Homo sapiens (Human), UniProt O60894+Q16602). Conditions: literature; cited from earlier work.
CGRP receptor, sequence (Q16602 23-461): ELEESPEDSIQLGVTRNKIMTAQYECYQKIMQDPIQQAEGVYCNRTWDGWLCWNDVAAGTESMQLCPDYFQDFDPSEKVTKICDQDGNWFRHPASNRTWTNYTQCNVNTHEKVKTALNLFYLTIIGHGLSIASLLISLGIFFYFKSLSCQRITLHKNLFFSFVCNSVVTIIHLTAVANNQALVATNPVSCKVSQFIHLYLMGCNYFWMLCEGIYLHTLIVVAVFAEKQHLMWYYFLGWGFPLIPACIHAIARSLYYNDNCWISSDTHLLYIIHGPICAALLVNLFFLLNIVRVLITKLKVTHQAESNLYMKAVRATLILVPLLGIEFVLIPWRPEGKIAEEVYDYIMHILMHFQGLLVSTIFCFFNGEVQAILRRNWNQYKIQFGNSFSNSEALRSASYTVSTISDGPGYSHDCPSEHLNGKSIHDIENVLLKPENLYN
CGRP receptor, sequence (O60894 27-148): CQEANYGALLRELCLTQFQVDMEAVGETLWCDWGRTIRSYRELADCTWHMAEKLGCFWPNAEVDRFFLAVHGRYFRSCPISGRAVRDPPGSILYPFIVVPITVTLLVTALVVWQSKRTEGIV
The next data set concerns migraine. The note with it: humans, at 24 h after intravenous infusion of a 2.5 mg dose; cited from earlier work.

As to `Cc1cc(C[C@@H](NC(=O)N2CCC(N3Cc4ccccc4NC3=O)CC2)C(=O)N[C@@H](CC2CCNCC2)C(=O)N2CCN(c3ccncc3)CC2)cc2cn[nH]c12` [Example 10, N-[(2R)-3-(7-methyl-1H-indazol-5-yl)-1-oxo-1-({(2S) (2S)-1-oxo-3-(piperidin-4-yl)-1-[4-(pyridin-4-yl)piperazin-1-yl]propan-2-yl}amino)propan-2-yl]-4-(2-oxo-1,4-dihydroquinazolin-3(2H)-yl)piperidine-1-carboxamide], the “Thermodynamic solubility (μM) pH 7.4” value in data set [1] is 1205 μM.
Take `O=C(CN1C(=O)C2(CCCC2)NC[C@H]1c1cc(F)cc(F)c1)Nc1ccc2c(c1)C[C@@]1(C2)C(=O)Nc2ncccc21` [MK-3207]: on CGRP receptor, the “kinetics at the CGRP receptor” value is recorded as “relatively slow dissociation”.
`NCCCC[C@H](NC(=O)[C@@H](Cc1cc(Br)c(O)c(Br)c1)NC(=O)N1CCC(N2Cc3ccccc3NC2=O)CC1)C(=O)N1CCN(c2ccncc2)CC1` [olcegepant]: the headache-free rate in the data set on migraine is 47%. On CGRP receptor, the “kinetics at the CGRP receptor” value is “slow kinetics”.
